Measurements taken from patent US20260083725A1, “SIGMARI LIGAND FOR THE TREATMENT OF PANCREATIC CANCER” (INSTITUT NATIONAL DE LA SANTÉ ET DE LA RECHERCHE MÉDICALE, priority 2022, published 2026).

Columns and labels:
Panc-1 cells = experiment: Proliferation and viability assays on Panc-1 cells; format: cell-based; conditions: control Panc-1 cells or cells silenced for Sig1R or SK2
KICpdx1 mice = experiment: Endogenous PDAC mice model (KICpdx1 mice) treated with 1(S) ligand; format: in vivo, mouse; conditions: for median survival: once a week, non-treated 67 days
Description: Pdx1-Cre, Ink4afl/fl LSL-KrasG12D (KICpdx1) mice were obtained by crossing of the following strains: Pdx1-Cre, Ink4afl/fl, and LSL-KrasG12D mice provided by D. Melton (Harvard Stem Cell Institute, Cambridge, Massachusetts, USA), R. Depinho (Dana-Farber Cancer Institute, Boston, Massachusetts, USA), and T. Jacks (David H. Koch Institute for Integrative Cancer Research, Cambridge, Massachusetts, USA), respectively. PDAC-bearing 5- and 8-week-old mice were treated once a week with vehicle or 1(S) ligand (0.1 mg/injection/mouse) until experimental endpoint mice reaching sacrificing time or mice reaching physiological endpoints (cachexia criteria, limited movement, drinking or feeding of the mice). No exclusion has to be reported in all experiments as no mice reached a criteria of exclusion such as a fight-related wound or the development of ear inflammation.. To study final tumor volume, mice were euthanized at 9 weeks and tumors were weighted and fixed in 4% (wt/vol) formaldehyde for immunochemistry. For survival analyses, mice were euthanized when they developed ethical clinical end points defined by our institutional guidelines and European animal protection law. For all experiments, sample size was predicted following a Mann-Whitney statistical approach involving power calculation of 0.8 with a FDR of 0.05. A minimum number of 7 mice per group was predicted as able to reach significance. Bonferroni post-hoc test was used for multiples test comparison (two variance with time and/or treatment). Experimental technicians were proceeding with injections while personnel related to mice follow-up worked in a blinded approach. All animal care and experimental procedures were performed in agreement with the Animal Ethics Committee of Marseille then the French ministry of research and innovation under the reference Apafis#16998-2018100814458519.

SK2/AKT interaction = experiment: In situ proximity ligation assay of SK2/AKT interaction in PANC-1 cells; format: cell-based, human; conditions: PANC-1 Sh RD cells, overnight CAF-CM + 1(S) ligand 1 μM; FIG. 1B
Description: The DuoLink in situ Proximity Ligation Assay (PLA) (Olink Bioscience, Uppsala, Sweden) was used to detect the interaction between SK2 and different candidates' partner (C-myc Sig-1R, EGFR, AKT, β1 integrin). PANC-1 cells expressing a stable Sh R D, Sh Sig-1R, or Sh SK2 were seeded on poly-Lysine (40 μg/mL) coated microscope slides. Cells were fixed with PFA 4% and permeabilized with triton X100 (0.05%). Cells were immunolabeled with primary antibodies: anti SK2 (1:100) and anti C-myc, (1:100) or anti EGFR (1:100), or anti AKT (1:100), or anti β1 integrin (1:100) for 1 h at 37° C. The secondary antibodies with attached PLA probes were supplied in the Duolink kit. Cellular PLA images were captured using an inverted Zeiss Axio Observer Z1 microscope (Zeiss, Jena, Germany). 6 to 10 fields have been imaged and quantified per conditions.

SK2 channel = experiment: Whole cell patch clamp recording of SK2 current in pancreatic cancer cells; format: cell-based, human; conditions: for CAF-CM-induced SK2 current: PANC-1 cells incubated with CAF-CM plus inhibitor or antibody
Description: Electrophysiological recordings in HEK293-T, PANC-1 and MiaPaCa-2 cells were performed in the whole cell configuration of the patch clamp technique at room temperature. Cells were bathed in a solution containing: 5 mM KCl, 145 mM NaCl, 1 mM MgCl2, 2 mM CaCl2, and 10 mM Hepes (pH adjusted to 7.4 with HCl, 300 mosm/L). Soft glass patch electrodes (Brand, Wertheim, Germany) were made on a horizontal pipette puller (P-97, Sutter Instrument Co., Novato, CA) to achieve a final resistance ranging from 3 to 5 MΩ. The internal solution was: 145 mM KCl, 1 mM MgCl2, 0.87 mM CaCl2, 1 mM EGTA, 10 mM Hepes, 1 mM ATP (pH adjusted to 7.2 with KOH, 308 mosm/L, pCa 6). Recordings were performed at room temperature in the voltage clamp mode using an PC-controlled EPC 9 patch-clamp amplifier (HEKA, Lambrecht/Pfalz, Germany). Currents were acquired and analyzed with Pulse and Pulsefit software (HEKA). Signal were filtered at 10 kHz and digitalized at 20 kHz. Currents were elicited by voltage ramps protocols (from −120 to +60 mV). Current density was measured at 0 mV. For the electrophysiological study of the SK2 mutations, HEK293-T were transfected with the different constructions and the HA-myr-AKT using calcium phosphate and recorded 24 h after transfection.

[1] = KICpdx1 mice treated from 5 weeks, end-point at 9 weeks, versus untreated

Row | SMILES | effect on proliferation and viability (Panc-1 cells) | tumor progression (KICpdx1 mice; KICpdx1 mice treated from 5 weeks old, before the onset of PDAC) | median survival (KICpdx1 mice; KICpdx1 mice treated from 5 weeks old, 0.1 mg/injection/mouse, FIG. 1D) [days] | histological examination of pancreas (KICpdx1 mice; KICpdx1 mice treated from 5 weeks, end-point at 9 weeks) | ECM density (trichrome labelling, desmoplasia) (KICpdx1 mice; [1]) | number of EMT-reprogramming epithelial cells (Pan-CK/αSMA co-staining) (KICpdx1 mice; [1]) | reduction of pancreas weight compared to non-treated (KICpdx1 mice; KICpdx1 mice treated from 5 weeks, end-point at 9 weeks, FIG. 1F) [%] | pancreas weight (KICpdx1 mice; KICpdx1 mice treated from 5 weeks, end-point at 9 weeks, non-treated 1.44 g (±0.42), FIG. 1F) [g] | median survival (KICpdx1 mice; KICpdx1 mice treated from 8 weeks of age (PDAC already developed), FIG. 1H) [days] | metastasis onset (KICpdx1 mice; mouse models of PDAC treated with 1(S)) | association of SK2 and AKT (PLA, interactions per cell) (SK2/AKT interaction) | CAF-CM mediated activation of SK2 (ISK2 current) (SK2 channel; PANC-1 cells exposed overnight to CAF-CM + 1(S) ligand 1 μM, patch-clamp, FIG. 1A) | CAF-CM-induced SK2 current (SK2 channel)
1 | CN(CCCN1C(=O)[C@@H]2Cc3ccccc3CN2C1=O)Cc1ccccc1 [Compound 1(S)] | does not exhibit any effect | significantly delayed | 84 | almost lack of malignant lesions | lower | lower | 69 | 0.45 | 77 | reduced | prevented | abolished | –
2 | CCN(CC)CCCCN1c2ccccc2Oc2ccc(Cl)cc21 [DEBC, reference compound] | – | – | – | – | – | – | – | – | – | – | – | – | suppressed
3 | C#Cc1cccc(Nc2ncnc3cc(OCCOC)c(OCCOC)cc23)c1 [Erlotinib, reference compound] | – | – | – | – | – | – | – | – | – | – | – | – | suppressed
